How the values were obtained:
[1] = test system: carrageenan-induced rat paw edema; experiment: carrageenan-induced rat paw edema test; assay type: in vivo; set-up: Mean increase in edema weight ± SEM: unit not given here; conditions: rats, 10 mg/kg intraperitoneally, 4 h after carrageenan; for inhibition in vivo at 10 mg/kg / change in vivo at 10 mg/kg: Rattus norvegicus, ip; for inhibition in vivo at 10 mg/kg: 4 h, read-out: %Inhibition of Paw edema from control group (edema reduction); for change in vivo at 10 mg/kg / Mean increase in edema weight ± SEM: N = 6; for change in vivo at 10 mg/kg: read-out: Mean % increase in edema weight ± SEM; for % Activity relative to indomethacine: indomethacin = 100
Protocol: The in vivo anti-inflammatory effects of the newly synthesized pyrazolopyrimidine derivatives were assessed by utilizing the functional model of carrageenan-induced rat paw edema using indomethacin as the reference drug. Mean changes and the percent increase in paw edema weight of animals pretreated with the tested compounds after 4 h from the induction of inflammation were measured, together with the percent inhibition of induced rat paw edema by the tested compounds. The anti-inflammatory activity (relative potency) of the tested compounds relative to that of indomethacin was also calculated (Table 1) (Fig. 2).
The in vivo carrageenan-induced rat paw edema model of inflammation was used to evaluate the anti-inflammatory properties of the newly synthesized compounds according to the previously reported Winter et al. method.
Adult male albino rats weighing 100–120 g (obtained from the animal house of the department of Physiology, Faculty of Medicine, Alexandria University) were used throughout the work. Animals were randomly divided into groups of six rats each. They were kept in an animal house under standard conditions of light and temperature with free access to food and water ad libitum and allowed to be accustomed to their environment for two days before testing.
Indomethacin, used as a reference standard (Khahira for Pharmaceutical and Chemical Industry, Cairo, Egypt), and the test compounds were dissolved in DMSO and were injected intraperitoneally at a dose level of 10 mg/kg body weight. Control animals, on the other hand, were intraperitoneally injected with appropriate volume of DMSO only. After one hour of the above treatment, an inflammatory edema in the right hind paw of all animals was induced by subcutaneous injection of 0.05 ml of freshly prepared solution of 1% carrageenan (λ-Carrageenan Sigma–Aldrich Corp. St. Louis, MO, USA) in sterile normal saline (0.9%), into the subplantar tissue of the paw. An equal volume of saline was injected to the left hind paw and served as internal control for the degree of inflammation in the right hind paw.
Four hours after carrageenan injection, animals were decapitated and both the right and left hind paws were excised at a standard point and weighed. The difference in weight from edema between right and left paws was taken as a measure of the degree of inflammation for each animal. The mean increase in weight of the carrageenan-injected paw over the other paw in each group was measured and the percent increase of edema was calculated. The anti-inflammatory efficacy of the tested compounds was assessed by comparing the change in paw weight in the treated animals with that in control animals (treated with DMSO only) and expressed as a percent inhibition of the edema (percent protection against inflammation), calculated according to the following equation: % Inhibition of edema=(1-Wt/Wc)×100 where Wt is the mean increase in paw weight in rats treated with the test compounds and Wc is the mean increase in paw weight in the control group. The anti-inflammatory activity of the test compounds relative to that of indomethacin was also determined (Table 2).
In the anti-inflammatory study, data obtained were expressed as the mean ± standard error (SEM). Statistical significance was determined by comparing the values of the test compounds and the standard with those obtained from the control group of animals using One-way ANOVA with Dunnett’s post-test using the GraphPad Prism version 3.00 for Windows (GraphPad Software, San Diego California USA, www.graphpad.com). The difference in results was considered significant if P < 0.001.

[2] = test system: gastric mucosa of rats; experiment: gastric ulcerogenic effect (Meshali's method, ulcer index by Robert's method); assay type: in vivo, rat; set-up: key to Ulcer index: ulcer index = %incidence/10 + avg no. of ulcers + avg severity (0–4)
Protocol: The ulcer index was calculated according to Robert’s method.
Adult male albino rats weighing between 100 and 120 g were used. Animals were divided into groups of five animals each. Rats were fasted 20 h before drug administration. Water was given ad libitum. The control group received the vehicle (1% gum acacia) orally. Other groups received indomethacin or test compounds orally in a dose of 10 mg/kg body weight suspended in 1% gum acacia. Rats were fasted for 2 h, allowed to feed for 2 h, then fasted for another 20 h. Rats were given another two doses on the second and third days. On the fourth day, rats were sacrificed by diethyl ether; the stomach of each rat was removed, opened along the greater curvature, and rinsed with cold 0.9% saline. The stomach was stretched, by pins, on a corkboard and inspected with a 3x magnifying lens for any evidence of mucosal damage. The ulcer index was calculated according to Robert’s method. The number of mucosal damage (red spots) was counted and their severity (ulcerogenic severity) was graded from 0 to 4 according to the following score assignment:
The following figures were calculated: • –– % Incidence/10 = [number of rats showing ulcer of any grade divided by total number of rats in the group × 100]/10. • –– Average number of ulcers: number of ulcers in the group/total number of rats in the group. • –– Average severity: Σ [each ulcer multiplied by its score of severity]/number of ulcers in the group. • Ulcer index = the sum of the 3 figures. • Results are tabulated in Table 2.

| SMILES | melting point | inhibition in vivo at 10 mg/kg [1] | change in vivo at 10 mg/kg [1] | Mean increase in edema weight ± SEM [1] | % Activity relative to indomethacine [1] | % ulceration in the population of test animals ([2]; oral 10 mg/kg) | Average No. of ulcer ([2]; oral 10 mg/kg on three days) | % Incidence/10 ([2]; oral 10 mg/kg on three days, 5 animals per group) | % Ulcerogenicity relative to indomethacin ([2]; oral 10 mg/kg on three days, indomethacin = 100) | Average severity ([2]; oral 10 mg/kg on three days, score 0 to 4) | Ulcer index ([2]; oral 10 mg/kg on three days, sum of the 3 figures) |
| --- | --- | --- | --- | --- | --- | --- | --- | --- | --- | --- | --- |
| Cc1nc2c(cnn2-c2ccccc2)c(=O)n1N [Compound 5, 5-Amino-6-methyl-1-phenyl-1,5-dihydro-4H-pyrazolo[3,4-d]pyrimidin-4-one] |  | 33.1% | 19.8 ± 1.6% | 1.05 ± 0.089 | 48.60% |  |  |  |  |  |  |
| Cc1nc2c(cnn2-c2ccccc2)c(=O)n1N=C1SCC(=O)N1c1ccccc1 [Compound 10a, 6-Methyl-5-[(4-oxo-3-phenyl-1,3-thiazolidin-2-ylidene)amino]-1-phenyl-1,5-dihydro-4H-pyrazolo[3,4-d]pyrimidin-4-one] | 264 to 267 °C | 52.2% | 9.5 ± 0.326% | 0.75 ± 0.022 | 76.64% |  |  |  |  |  |  |
| Cc1nc2c(cnn2-c2ccccc2)c(=O)n1N1C(=O)CC(=O)N(c2ccccc2)C1=S [Compound 12a, 1-(6-Methyl-4-oxo-1-phenyl-1,4-dihydro-5H-pyrazolo[3,4-d]pyrimidin-5-yl)-3-phenyl-2-thioxodihydropyrimidine-4,6(1H,5H)-dione] |  | 35% | 13.6 ± 0.795% | 1.02 ± 0.060 |  |  |  |  |  |  |  |
| Nn1c(C=O)nc2c(cnn2-c2ccccc2)c1=O [Compound 13, 5-Amino-4-oxo-1-phenyl-4,5-dihydro-1H-pyrazolo[3,4-d]pyrimidine-6-carbaldehyde] | 145 to 146 °C | 39.5% | 15.1 ± 1.07% | 0.95 ± 0.043 | 57.95% |  |  |  |  |  |  |
| CCOC(=O)c1cc2nc3c(cnn3-c3ccccc3)c(=O)n2[nH]c1=O [Compound 15, Ethyl 4,7-dioxo-1-phenyl-1,4,6,7-tetrahydropyrazolo[3′,4′:4,5]pyrimido[1,2-b]-pyridazine-8-carboxylate] | 172 to 173 °C | 41.4% | 16.4 ± 1.02% | 0.92 ± 0.060 | 60.75% |  |  |  |  |  |  |
| COc1ccc2c(c1)c(CC(=O)O)c(C)n2C(=O)c1ccc(Cl)cc1 [Indomethacin, reference compound] |  | 68.2% | 6.37 ± 0.366% | 0.50 ± 0.026 | 100.0% | 100% | 4.4 | 10 | 100.00% | 2.86 | 17.26 |

The next lines start with results.

| melting point | SMILES | inhibition in vivo at 10 mg/kg [1] | change in vivo at 10 mg/kg [1] | Mean increase in edema weight ± SEM [1] | % Activity relative to indomethacine [1] | % ulceration in the population of test animals ([2]; oral 10 mg/kg) | Average No. of ulcer ([2]; oral 10 mg/kg on three days) | % Incidence/10 ([2]; oral 10 mg/kg on three days, 5 animals per group) | % Ulcerogenicity relative to indomethacin ([2]; oral 10 mg/kg on three days, indomethacin = 100) | Average severity ([2]; oral 10 mg/kg on three days, score 0 to 4) | Ulcer index ([2]; oral 10 mg/kg on three days, sum of the 3 figures) |
| --- | --- | --- | --- | --- | --- | --- | --- | --- | --- | --- | --- |
| 184 to 186 °C | Cc1nc2c(cnn2-c2ccccc2)c(=O)n1N=Cc1ccccc1 [Compound 7a, 5-(Benzylideneamino)-6-methyl-1-phenyl-1,5-dihydro-4H-pyrazolo[3,4-d]pyrimidin-4-one] | 34.4% | 15.3 ± 0.515% | 1.03 ± 0.033 | 50.46% |  |  |  |  |  |  |
| 195 to 196 °C | Cc1nc2c(cnn2-c2ccccc2)c(=O)n1N=Cc1ccc(Cl)cc1 [Compound 7b, 5-[(4-Chlorobenzylidene)amino]-6-methyl-1-phenyl-1,5-dihydro-4H-pyrazolo[3,4-d]-pyrimidin-4-one] | 36.3% | 15.2 ± 1.4% | 1.00 ± 0.063 | 53.28% |  |  |  |  |  |  |
| 179 to 181 °C | Cc1nc2c(cnn2-c2ccccc2)c(=O)n1N1C(=O)CSC1c1ccccc1 (centres unmarked) [Compound 8a, 6-Methyl-5-(4-oxo-2-phenyl-1,3-thiazolidin-3-yl)-1-phenyl-1,5-dihydro-4H-pyrazolo[3,4-d]-pyrimidin-4-one] | 37.6% | 12.5 ± 0.376% | 0.98 ± 0.017 | 55.14% |  |  |  |  |  |  |
| 191 to 195 °C | Cc1nc2c(cnn2-c2ccccc2)c(=O)n1N1C(=O)CSC1c1ccc(Cl)cc1 (centres unmarked) [Compound 8b, 5-[2-(4-Chlorophenyl)-4-oxo-1,3-thiazolidin-3-yl]-6-methyl-1-phenyl-1,5-dihydro-4H-pyrazolo[3,4-d]pyrimidin-4-one] | 40.8% | 13 ± 0.702% | 0.93 ± 0.042 | 59.81% |  |  |  |  |  |  |
| 145 to 150 °C | Cc1nc2c(cnn2-c2ccccc2)c(=O)n1NC(=S)Nc1ccccc1 [Compound 9a, 1-(6-Methyl-4-oxo-1-phenyl-1,4-dihydro-5H-pyrazolo[3,4-d]pyrimidin-5-yl)-3-phenylthiourea] | 42.7% | 12.7 ± 0.748% | 0.90 ± 0.058 | 62.63% |  |  |  |  |  |  |
| 157 to 160 °C | Cc1nc2c(cnn2-c2ccccc2)c(=O)n1NC(=S)Nc1ccc(Cl)cc1 [Compound 9b, 1-(4-Chlorophenyl)-3-(6-methyl-4-oxo-1-phenyl-1,4-dihydro-5H-pyrazolo[3,4-d]pyrimidin-5-yl)thiourea] | 47.8% | 15.7 ± 1.03% | 0.82 ± 0.048 | 70.10% |  |  |  |  |  |  |
| 198 to 201 °C | Cc1nc2c(cnn2-c2ccccc2)c(=O)n1N1C(=O)CC(=O)N(c2ccc(Cl)cc2)C1=S [Compound 12b, 1-(4-Chlorophenyl)-3-(6-methyl-4-oxo-1-phenyl-1,4-dihydro-5H-pyrazolo[3,4-d]pyrimidin-5-yl)-2-thioxodihydropyrimidine-4,6(1H,5H)-dione] | 45.9% | 19.3 ± 0.905% | 0.85 ± 0.043 | 67.29% |  |  |  |  |  |  |
| 155 to 156 °C | CCOC(=O)c1cc2nc3c(cnn3-c3ccccc3)c(=O)n2nc1N [Compound 14, Ethyl 7-amino-4-oxo-1-phenyl-1,4-dihydropyrazolo[3′,4′:4,5]pyrimido[1,2-b]-pyridazine-8-carboxylate] | 44.6% | 11.1 ± 1.14% | 0.87 ± 0.076 | 65.43% |  |  |  |  |  |  |
| 118 to 119 °C | O=c1c2cnn(-c3ccccc3)c2nc2ccc(-c3ccccc3)nn12 [Compound 16, 1,7-Diphenylpyrazolo[3′,4′:4,5]pyrimido[1,2-b]pyridazin-4(1H)-one] | 28.1% | 14.3 ± 0.98% | 1.13 ± 0.067 | 41.13% |  |  |  |  |  |  |

Source: article PMC3700072, “Synthesis, Anti-Inflammatory, and Ulcerogenicity Studies of Novel Substituted and Fused Pyrazolo[3,4-d]pyrimidin-4-ones” (Scientia Pharmaceutica, 2013)
